Assay results published in patent US9655828B2, “Glucuronolactone derivatives as self-tanning substances” (Merck Patent GmbH, priority 2013, dated 2017).

Columns and labels:
[1] = tested on: histological explants from lower abdomen tissue; experiment: Ex-vivo study: chromametric measurement of skin explants (ITA); parameters: species or system human; settings: 4% substance, 30 μl applied daily for 2 h
Description: 24 histological explants having an average diameter of 10 mm are prepared from the lower abdomen tissue of a person. The pieces of tissue are kept in BEM medium (BIO-EC's Explants Medium) at 37° C. in a humid atmosphere comprising 5% of CO2.
The tissue is divided into 8 batches of 3 explants each: • A negative control (untreated sample, treated only with the vehicle Mygliol)→E • A positive control (4% dihydroxyacetone)→R1 • A positive control (4% erythrulose)→R2 • Glucuronolactone (4%)→P1 • Compound of the formula (Ig) (4%)→P2 • Compound of the formula (Ia) (4%)→P3
30 μl of the substance solutions are applied on 10 consecutive days using a round filter paper and left to act for 2 h. On days 1, 3 and 7, the explants are measured chromametrically.
The colour measurements are carried out using a Minolta CR-300 Chroma-meter, and the L, a and b values are read off correspondingly on the instrument.
In 1931, a test series was carried out by the CIE (Commision Internationale de L'Eclairage), where the “2-degree standard observer” was defined. A colour area is present here which is viewed at a viewing angle of 2 degrees. This viewing angle is used as standard in the chromametric measurement. • Irradiation source D65, corresponding to daylight • Region of the measurement: 3 mm • Parameters used: L*a*b*
The sample is placed on the bearing rail with the epidermis facing downwards. The irradiation is carried out from the underside through the area indicated (3 mm).
In the colorimetric determinations <<L a b>>, the L value determines the contrast of the skin. If the L value drops, the skin appears darker.
ITA is defined as arctang[(L-50)/b]. If the ITA index increases, the skin appears paler.

[2] = Liquid skin model (reaction with L-lysine, L*a*b* values); settings: for L* / a* / b*: 1 mmol substance + 1 mmol L-lysine in 100 ml phosphate-buffered water (pH=7)/ethylene glycol 6:94; for L* / a* / b* / L values compared with erythrulose or glucuronolactone: after 24 hours; for hue achieved: conclusion from a values
Description: The mixture is subsequently made up to the mark with a mixture of 6 ml of phosphate-buffered water (pH=7) and 94 ml of ethylene glycol. The reaction is observed with vigorous stirring, and the L*a*b* values are determined after 24 hours.

[3] = Colouring test on merino wool balls; settings: 1 mmol substance in 100 ml buffer (pH 7)/ethylene glycol 6:94, RT, 24 h, then washed and dried; compared with untreated sample
Description: In each case, 1 mmol of the substance to be tested are weighed out into a 100 ml conical flask with ground-glass joint:
A merino wool ball with the size of a grape and a magnetic stirrer are then added to each conical flask.
A mixture of 6% by vol. of buffer (ph7) and 94% by vol. of ethylene glycol is then prepared, 100 ml of this mixture are added to each conical flask and stirred at RT for 24 h.
After 24 h, the wool balls are washed firstly with water, then with warm washing-powder solution and again with water and dried.
This colouring result can also be applied to hair, since merino wool, like hair, is built up from proteins (keratins) and the outermost layer is in each case the cuticle.

| Compound | Day 1 (ITA value) [1] [%] | Day 3 (ITA value) [1] [%] | Day 7 (ITA value) [1] [%] | L* [2] | a* [2] | b* [2] | coloration of wool samples [3] | L values compared with erythrulose or glucuronolactone ([2]; in words) | hue achieved ([2]; in words) | colour effect compared with erythrulose or glucuronolactone ([2]; identical concentration in the test formulation, in words) |
| --- | --- | --- | --- | --- | --- | --- | --- | --- | --- | --- |
| O=C(CO)[C@H](O)CO [Erythrulose] | 4 | −4 | 4 | 93.50 | −4.40 | 32.66 | – | – | – | – |
| O=C(CO)CO [DHA, 1,3-dihydroxyacetone] | −3 | 0 | −1 | 34.95 | 24.91 | 57.45 | no coloration | – | – | – |
| CC(=O)OC1C(=O)OC2C3OC(C)(C)OC3OC12 (centres unmarked) [Compound (Io), 2,2-Dimethyl-5-oxohexahydrofuro[2′,3′:4,5]furo[2,3-d]-1,3-dioxol-6-yl acetate] | – | – | – | 87.51 | 2.41 | 92.10 | pale-yellow coloration | lower L values than erythrulose or glucuronolactone | – | – |
| CC1(C)OC2OC3C(OC(=O)c4ccccc4)C(=O)OC3C2O1 (centres unmarked) [Compound (Ig)] | – | – | – | 64.09 | 36.87 | 103.8 | yellow coloration | lower L values than erythrulose or glucuronolactone | shifted more towards red | – |
| O=C[C@H](O)[C@H]1OC(=O)[C@@H](O)[C@H]1O [Glucuronolactone] | 10 | 4 | −2 | 94.30 | −6.94 | 38.68 | very pale-yellow coloration | – | – | comparable colour effect to erythrulose |
| COc1ccc(/C=C/C(=O)OC2C(=O)OC3C4OC(C)(C)OC4OC23)cc1 (centres unmarked) [Compound (Ia), 2,2-Dimethyl-5-oxohexahydrofuro[2′,3′:4,5]furo[2,3-d]-1,3-dioxol-6-yl(E)-3-(4-methoxyphenyl)acrylate] | −6 | −5 | −10 | 66.34 | 34.88 | 105.16 | orange-yellow coloration | lower L values than erythrulose or glucuronolactone | shifted more towards red | – |
